Experimental data from PMC6857856, “Characterization of two thermophilic cellulases from Talaromyces leycettanus JCM12802 and their synergistic action on cellulose hydrolysis” (PLoS ONE, 2019).

Biological target: T1, TlCel5A (Evansstolkia leycettana, UniProt A0A3G5ECP2)
T1 construct: mature protein, 18-residue signal peptide removed (precursor 409 residues); catalytic domain, linker, C-terminal CBM; pPIC9, secreted from Pichia pastoris GS115, purified
Experiment: HPAEC analysis of hydrolysis products
Assay type: biochemical
Conditions: 60 °C; 200 μg substrate in 1 mL, 0.05 U enzyme

T1 sequence (A0A3G5ECP2 19-409): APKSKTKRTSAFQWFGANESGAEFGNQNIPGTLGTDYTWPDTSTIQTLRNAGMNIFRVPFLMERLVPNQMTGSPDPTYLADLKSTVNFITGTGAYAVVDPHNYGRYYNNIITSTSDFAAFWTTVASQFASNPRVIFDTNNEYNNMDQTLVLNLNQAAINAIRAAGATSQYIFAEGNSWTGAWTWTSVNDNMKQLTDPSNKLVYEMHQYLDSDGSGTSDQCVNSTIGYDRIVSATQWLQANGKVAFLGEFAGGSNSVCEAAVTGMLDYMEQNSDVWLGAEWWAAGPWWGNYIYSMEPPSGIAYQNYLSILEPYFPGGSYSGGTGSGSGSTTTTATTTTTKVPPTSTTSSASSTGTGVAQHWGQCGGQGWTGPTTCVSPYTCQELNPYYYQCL

Q: With `OC[C@H]1O[C@@H](O[C@H]2[C@H](O)[C@@H](O)[C@H](O[C@H]3[C@H](O)[C@@H](O)[C@H](O[C@H]4[C@H](O)[C@@H](O)[C@H](O[C@H]5[C@H](O)[C@@H](O)[C@H](O[C@H]6[C@H](O)[C@@H](O)C(O)O[C@@H]6CO)O[C@@H]5CO)O[C@@H]4CO)O[C@@H]3CO)O[C@@H]2CO)[C@H](O)[C@@H](O)[C@@H]1O` (some centres unmarked) [cellohexaose] as the compound, how does the “HPAEC analysis of hydrolysis products” value read?
A: The value was “cellohexaose into cellobiose, cellotriose, cellotetraose and cellopentaose”.

Q: Which “HPAEC analysis of hydrolysis products” value does the source give for `OC[C@H]1O[C@@H](O[C@H]2[C@H](O)[C@@H](O)[C@H](O[C@H]3[C@H](O)[C@@H](O)[C@H](O[C@H]4[C@H](O)[C@@H](O)[C@H](O[C@H]5[C@H](O)[C@@H](O)C(O)O[C@@H]5CO)O[C@@H]4CO)O[C@@H]3CO)O[C@@H]2CO)[C@H](O)[C@@H](O)[C@@H]1O` (some centres unmarked) [cellopentaose] here?
A: The value was “cleaved cellopentaose into mainly cellobiose and cellotriose and low amounts of cellotetraose”.
